Counter-ions that a name gives are not always drawn. Like-named read-outs stand apart in the source and are kept apart here. Blank lines part the entries; values can stand above or below the compound they belong to.
Key:
[1] = target: T1, Angiotensin I Converting Enzyme (ACE) (Oryctolagus cuniculus, UniProt P12822); experiment: Inhibition of Angiotensin I Converting Enzyme (ACE), HHL substrate, modified Cushman method; type: biochemical; conditions: read-out: ACE inhibitory activity (%); for inhibition at 1 µM: concentration 1 μM
T1 sequence (P12822 34-1310): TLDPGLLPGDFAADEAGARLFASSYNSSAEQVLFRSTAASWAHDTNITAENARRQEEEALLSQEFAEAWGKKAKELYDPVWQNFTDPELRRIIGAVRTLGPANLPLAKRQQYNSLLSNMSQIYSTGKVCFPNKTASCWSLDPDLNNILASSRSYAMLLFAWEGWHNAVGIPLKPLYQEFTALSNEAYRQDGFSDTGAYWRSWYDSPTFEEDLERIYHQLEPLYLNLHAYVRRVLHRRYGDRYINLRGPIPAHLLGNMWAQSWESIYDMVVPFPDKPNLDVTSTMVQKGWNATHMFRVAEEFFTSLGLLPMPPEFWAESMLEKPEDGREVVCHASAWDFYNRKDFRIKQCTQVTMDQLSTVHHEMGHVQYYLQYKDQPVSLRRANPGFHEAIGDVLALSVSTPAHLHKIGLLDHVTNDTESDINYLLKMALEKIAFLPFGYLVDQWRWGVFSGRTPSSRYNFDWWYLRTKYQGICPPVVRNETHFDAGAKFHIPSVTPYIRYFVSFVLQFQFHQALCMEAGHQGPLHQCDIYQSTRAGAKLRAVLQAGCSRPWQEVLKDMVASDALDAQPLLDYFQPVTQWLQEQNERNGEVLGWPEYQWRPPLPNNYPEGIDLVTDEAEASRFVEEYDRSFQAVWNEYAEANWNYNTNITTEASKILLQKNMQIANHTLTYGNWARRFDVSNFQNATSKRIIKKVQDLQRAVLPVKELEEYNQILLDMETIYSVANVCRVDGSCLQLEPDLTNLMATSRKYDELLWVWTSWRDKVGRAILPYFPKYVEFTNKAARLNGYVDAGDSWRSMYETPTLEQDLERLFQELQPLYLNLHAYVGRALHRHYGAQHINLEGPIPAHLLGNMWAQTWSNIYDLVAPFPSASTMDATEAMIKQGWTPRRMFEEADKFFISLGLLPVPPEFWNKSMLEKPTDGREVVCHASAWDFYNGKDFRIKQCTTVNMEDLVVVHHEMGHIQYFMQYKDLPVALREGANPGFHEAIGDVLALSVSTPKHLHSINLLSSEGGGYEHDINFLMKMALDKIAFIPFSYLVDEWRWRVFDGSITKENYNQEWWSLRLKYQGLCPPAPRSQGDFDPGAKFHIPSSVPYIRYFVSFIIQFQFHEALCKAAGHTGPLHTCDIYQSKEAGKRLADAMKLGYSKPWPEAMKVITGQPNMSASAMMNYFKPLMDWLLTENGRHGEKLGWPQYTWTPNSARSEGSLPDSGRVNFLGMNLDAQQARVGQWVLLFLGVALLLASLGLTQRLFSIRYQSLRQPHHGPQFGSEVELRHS
Experimental: Experiment on Inhibition of Angiotensin I Converting Enzyme (ACE) by the Compounds of this Invention. […] That is, using hippuryl-L-histidyl-L-leucine (HHL) as the substrate, the ACE inhibitory activity was determined in terms of percent inhibition on the amount of hippuric acid produced by ACE when the compound of the present invention was added. […] In this experiment, a borate-HCl buffer solution containing dimethylsulfoxide at a concentration equal to that of the test solution was used as a control. After warming the solution at 37° C. for 1 hour, 150 μl of 1N hydrochloric acid was added to the solution to terminate the reaction. After 0.8 ml of ethyl acetate was added the solution was centrifuged at 11500 rpm for 2 minutes. A 0.5 ml aliquot was separated from the ethyl acetate layer and dried at a temperature below 40° C. under nitrogen gas streams. The residue was mixed thoroughly with 4.5 ml of distilled water, and the mixture was subjected to colorimetry at a wavelength of 228 nm.

[2] = system: hypertensive reaction by angiotensin I; experiment: Effect against hypertensive activity of angiotensin I in rats, oral administration; type: in vivo, rats (Sprague-Dawley); conditions: male rats
Experimental: (§1) Effect of the Compounds of the Present Invention against Hypertensive Activity of Angiotensin I.
(§2) Male rats (Sprague-Dawley) weighing 250 to 350 g which were fed under free access to drinking water and feed were used as experimental animals. The rats were anesthetized with intraperitoneal administration of pentobarbital sodium (50 mg/kg) on the day before the test day and a polyethylene tube was inserted into each of the femoral artery for measurement of blood pressure and the femoral vein for injection of angiotensin I and II. And the tubes were fixed.
On the test day, an average blood pressure in the control phase was measured by an electric hemodynamometer (MPU-0.5-290-0-III model manufactured by NEC-Sanei, Japan) and recorded by a polygraph (NEC-Sanei, Type 365 or Nippon Kohden Type RM-45), and thereafter angiotensin I and then angiotensin II were injected through the femoral vein at a dose of 300 ng/kg and 100 ng/kg, respectively, to measure the hypertensive activity. Then, 3 and 10 mg/kg of the compound of the present invention were administered orally as an aqueous solution or an aqueous gum arabic suspension, and 20, 60 and 120 minutes after the administration, angiotensin I and II were injected repeatedly to trace hypertensive reactions. In calculating the percent inhibition to the hypertensive activity of angiotensin I, the percent inhibitory value was corrected based on the variation with time in the hypertensive reaction by angiotensin II.

[3] = system: hypertensive reaction by angiotensin I; experiment: Effect against hypertensive activity of angiotensin I in rats, intravenous administration; type: in vivo, rats (Sprague-Dawley); conditions: 300 μg/kg i.v., male rats
Experimental: as §1
as §2, with “300” for “250”, “400” for “350”
On the test day, an average blood pressure in the control phase was measured by an electric hemodynamometer (MPU-0.5-290-0-III model manufactured by NEC-Sanei, Japan) and recorded by a polygraph (NEC-Sanei, Type 365 or Nippon Kohden Type RM-45, and thereafter angiotensin I and then angiotensin II were injected through the femoral vein at a dose of 300 ng/kg and 100 ng/kg, respectively, to measure the hypertensive activity. […] In calculating the percent inhibition to the hypertensive activity of angiotensin I, the percent inhibitory value was corrected based on the variation with time in the hypertensive reaction by antiotensin II.

[4] = 10 mg/kg orally, after 120 min.

inhibition at 0.1 µM ([1]; concentration 0.1 μM): 93%
inhibition at 1 µM [1]: 100%
SMILES: O=C(O)CN1C(=O)[C@@H](N[C@@H](CCCCNC2CCCCC2)C(=O)O)CSc2ccccc21 [Example 69, 3(R)-[1(S)-carboxy-5-cyclohexylaminopentyl]amino-4-oxo-2,3,4,5-tetrahydro-1,5-benzothiazepine-5-acetic acid]

inhibition at 0.1 µM ([1]; concentration 0.1 μM): 48%
inhibition at 1 µM [1]: 85%
SMILES: CCOC(=O)C(CCc1ccccc1)N[C@H]1CSc2ccccc2N(CC(=O)O)C1=O (some centres unmarked) [Example 6]

inhibition at 0.1 µM ([1]; concentration 0.1 μM): 83%
inhibition at 1 µM [1]: 95%
SMILES: CCOC(=O)[C@H](CCC1CCCCC1)N[C@H]1CSc2ccccc2N(CC(=O)O)C1=O.Cl [Example 9, 3(R)-[1(S)-ethoxycarbonyl-3-cyclohexylpropyl]amino-4-oxo-2,3,4,5-tetrahydro-1,5-benzothiazepine-5-acetic acid hydrochloride]
Inhibition against hypertensive reaction by angiotensin I (%) ([2]; 3 mg/kg orally, after 20 min.): 66%
Inhibition against hypertensive reaction by angiotensin I (%) ([2]; 3 mg/kg orally, after 60 min.): 36%
Inhibition against hypertensive reaction by angiotensin I (%) ([2]; 3 mg/kg orally, after 120 min.): 12%
Inhibition against hypertensive reaction by angiotensin I (%) ([2]; 10 mg/kg orally, after 20 min.): 92%
Inhibition against hypertensive reaction by angiotensin I (%) ([2]; 10 mg/kg orally, after 60 min.): 72%
Inhibition against hypertensive reaction by angiotensin I (%) [2, 4]: 68%

inhibition at 1 µM [1]: 50%
inhibition at 10 µM ([1]; concentration 10 μM): 86%
SMILES: O=C(O)CN1C(=O)[C@@H](N[C@H](CCc2ccccc2)C(=O)O)CSc2ccccc21 [Example 12, 3(R)-[1(R)-carboxy-3-phenylpropyl]amino-4-2,3,4,5-tetrahydro-1,5-benzothiazepine-5-acetic acid disodium salt]

inhibition at 0.1 µM ([1]; concentration 0.1 μM): 53%
inhibition at 1 µM [1]: 86%
SMILES: CCOC(=O)[C@H](CCc1ccccc1)N[C@H]1CSc2ccccc2N(CC(=O)O)C1=O.Cl [Example 7, 3(R)-[1(S)-ethoxycarbonyl-3-phenylpropyl]amino-4-oxo-2,3,4,5-tetrahydro-1,5-benzothiazepine-5-acetic acid hydrochloride]
Inhibition against hypertensive reaction by angiotensin I (%) ([2]; 3 mg/kg orally, after 20 min.): 85%
Inhibition against hypertensive reaction by angiotensin I (%) ([2]; 3 mg/kg orally, after 60 min.): 51%
Inhibition against hypertensive reaction by angiotensin I (%) ([2]; 3 mg/kg orally, after 120 min.): 27%
Inhibition against hypertensive reaction by angiotensin I (%) ([2]; 10 mg/kg orally, after 20 min.): 85%
Inhibition against hypertensive reaction by angiotensin I (%) ([2]; 10 mg/kg orally, after 60 min.): 68%
Inhibition against hypertensive reaction by angiotensin I (%) [2, 4]: 51%

inhibition at 0.1 µM ([1]; concentration 0.1 μM): 40%
inhibition at 1 µM [1]: 84%
SMILES: CCOC(=O)[C@@H](CCc1ccccc1)N[C@H]1CSc2ccccc2N(CC(=O)O)C1=O [Example 5, 3(R)-[1(R)-ethoxycarbonyl-3-phenylpropyl]amino-4-oxo-2,3,4,5-tetrahydro-1,5-benzothiazepine-5-acetic acid hydrochloride]

SMILES: O=C(O)CN1C(=O)[C@@H](N[C@@H](CCc2ccccc2)C(=O)O)CSc2ccccc21 [Example 13, 3(R)-[1(S)-carboxy-3-phenylpropyl]amino-4-oxo-2,3,4,5-tetrahydro-1,5-benzothiazepine-5-acetic acid monosodium salt]
inhibition at 0.01 µM [1]: 46%
inhibition at 0.1 µM [1]: 91%

inhibition at 0.1 µM ([1]; concentration 0.1 μM): 96%
inhibition at 1 µM [1]: 100%
SMILES: NCCCCCC[C@H](N[C@H]1CSc2ccccc2N(CC(=O)O)C1=O)C(=O)O [Example 73, 3(R)-[7-amino-1(S)-carboxyheptyl]amino-4-oxo-2,3,4,5-tetrahydro-1,5-benzothiazepine-5-acetic acid]

SMILES: NCCCCCC[C@H](N[C@H]1CSc2ccccc2N(CC(=O)O)C1=O)C(=O)O [H]
Inhibition against hypertensive reaction by angiotensin I (%) ([3]; after 5 min): 100%
Inhibition against hypertensive reaction by angiotensin I (%) ([3]; after 10 min): 97%
Inhibition against hypertensive reaction by angiotensin I (%) ([3]; after 30 min): 97%
Inhibition against hypertensive reaction by angiotensin I (%) ([3]; after 60 min): 91%
Inhibition against hypertensive reaction by angiotensin I (%) ([3]; after 90 min): 78%
Inhibition against hypertensive reaction by angiotensin I (%) ([3]; after 120 min): 48%

SMILES: CCOC(=O)[C@H](CCCCCCN)N[C@H]1CSc2ccccc2N(CC(=O)O)C1=O [C2 H5]
Inhibition against hypertensive reaction by angiotensin I (%) ([3]; after 5 min): 97%
Inhibition against hypertensive reaction by angiotensin I (%) ([3]; after 10 min): 97%
Inhibition against hypertensive reaction by angiotensin I (%) ([3]; after 30 min): 100%
Inhibition against hypertensive reaction by angiotensin I (%) ([3]; after 60 min): 96%
Inhibition against hypertensive reaction by angiotensin I (%) ([3]; after 90 min): 87%
Inhibition against hypertensive reaction by angiotensin I (%) ([3]; after 120 min): 73%

inhibition at 0.1 µM ([1]; concentration 0.1 μM): 82%
inhibition at 1 µM [1]: 98%
SMILES: NCCCC[C@H](N[C@H]1CSc2ccccc2N(CC(=O)O)C1=O)C(=O)O [Example 60, 3(R)-[5-amino-1(S)-carboxypentyl]amino-4-oxo-2,3,4,5-tetrahydro-1,5-benzothiazepine-5-acetic acid]

inhibition at 0.01 µM ([1]; concentration 0.01 μM): 77%
inhibition at 0.1 µM ([1]; concentration 0.1 μM): 96%
SMILES: O=C(O)CN1C(=O)[C@@H](N[C@@H](CCC2CCCCC2)C(=O)O)CSc2ccccc21 [Example 50, 3(R)-[1(S)-carboxy-3-cyclohexylpropyl]amino-4-oxo-2,3,4,5-tetrahydro-1,5-benzothiazepine-5-acetic acid]

— patent publication US4564612A, “Condensed, seven-membered ring compounds and their use” (Takeda Chemical Industries, Ltd., priority 1983, dated 1986)
